One data set deals with IL-6 secretion. Description: IL-6 secretion assay in astrocytes (Promega Lumit IL-6 kit). It counts as cell-based, human. The settings on record: Homo sapiens, Astrocyte. The method, then:
IL-6 secretion assay. HCAs were plated at 20,000 cells per well in white clear bottom 96-well plates. Two to three days later, media was removed and replaced with media containing 10 ng/mL IL1B and compound dilution series. Five hours later, plates were processed using the Lumit IL-6 Assay Kit (Promega W6030) according to the manufacturer's instructions.
• ^1Radiometric kinase assay from Eurofins. Performed in astrocytes with a Promega Lumit IL-6 kit. A series of halogenated flavones was generated and assayed (Table 3).

For the next data set, the target named is T1, CK2A2 (Homo sapiens, UniProt P19784).
T1 construct: purchased Eurofins
The data set is described as follows: Radiometric kinase assay (Eurofins), CK2A2. It counts as biochemical. An excerpt: (§1) • ^1Radiometric kinase assay from Eurofins. Performed in astrocytes with a Promega Lumit IL-6 kit.

The next data set has as its target T2, CK2A1 (Homo sapiens, UniProt P68400).
T2 construct: purchased Eurofins
The data set is described as follows: Radiometric kinase assay (Eurofins), CK2A1. The class given is biochemical.
Description: FIGS. 4A-4F characterize flavones for in vitro and in-cell CK2 inhibition. […] Representative of two independent experiments. […] Nonlinear fit was used to calculate IC50. […] Nonlinear fit was used to calculate IC50. […] Nonlinear fit was used to calculate IC50. […] Normalized to DMSO, data are representative of three independent experiments.
as §1

The nature of another data set: Aqueous solubility. It counts as physicochemical. Particulars: Table 10; read-out: Solubility.
[1] abbreviates: Table 2, read-out: CK2A2 RAD IC50.
Where [2] appears, read: Table 2, astrocytes, read-out: IL6-Inhib.
[3] abbreviates: Table 2, read-out: CK2A1 RAD IC50.
Where [4] appears, read: Table 10, aurones, read-out: CK2A2 IC50.
Where [5] appears, read: Table 10, aurones, read-out: CK2A1 IC50.

Usually solubility stands for the concentration that dissolves in the medium under given conditions.

≈ marks a conversion by molar mass, not a printed value. Where two headings read alike, the source gives them in different places.

T1 sequence (P19784 whole entry): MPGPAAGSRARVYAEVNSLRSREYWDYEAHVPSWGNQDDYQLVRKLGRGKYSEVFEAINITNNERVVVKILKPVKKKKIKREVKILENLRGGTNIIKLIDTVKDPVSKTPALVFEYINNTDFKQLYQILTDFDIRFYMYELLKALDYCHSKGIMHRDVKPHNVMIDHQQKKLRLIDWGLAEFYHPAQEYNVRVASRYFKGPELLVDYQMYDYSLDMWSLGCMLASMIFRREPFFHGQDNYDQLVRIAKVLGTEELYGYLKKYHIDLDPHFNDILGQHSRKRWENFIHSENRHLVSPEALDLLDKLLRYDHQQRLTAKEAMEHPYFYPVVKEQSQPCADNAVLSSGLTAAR
T2 sequence (P68400 whole entry): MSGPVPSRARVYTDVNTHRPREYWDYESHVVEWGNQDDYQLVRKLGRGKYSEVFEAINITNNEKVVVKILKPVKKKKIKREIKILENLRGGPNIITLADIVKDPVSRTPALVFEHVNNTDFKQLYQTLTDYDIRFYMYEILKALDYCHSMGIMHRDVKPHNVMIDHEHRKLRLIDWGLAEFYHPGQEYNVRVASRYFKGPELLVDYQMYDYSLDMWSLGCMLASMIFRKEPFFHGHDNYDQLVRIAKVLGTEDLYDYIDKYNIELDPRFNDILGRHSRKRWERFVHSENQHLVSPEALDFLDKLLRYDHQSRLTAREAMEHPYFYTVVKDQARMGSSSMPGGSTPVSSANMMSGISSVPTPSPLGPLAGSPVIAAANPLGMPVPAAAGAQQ

Regarding `O=C(O)c1ccc2c(c1)nc(Nc1cccc(Cl)c1)c1ccncc12` [CX-4945, silmitasertib, reference compound], the IC50 with IL-6 secretion (astrocytes stimulated with IL1-β, after 5 hours, read-out: IC50, secretion of IL-6) is 0.315 µM.
Consider `COc1cc(-c2cc(=O)c3cc(Br)cc(Br)c3o2)ncc1O` [JKT.77A], for which the values for the IC50 at CK2A2 (setting [1]), in the data set with IL-6 secretion (setting [2]) and on CK2A1 (setting [3]) were 0.019 µM, 6.7 µM and 0.021 µM, respectively.
In the same order, the values of `O=c1cc(-c2ccc(O)c(C(F)(F)F)c2)oc2c(Br)cc(Br)cc12` [JKT.460A] are 0.129 µM, 3 µM and 0.609 µM.
The matching figures for `O=c1cc(-c2cc(F)c(O)c(F)c2)oc2c(Br)cc(Br)cc12` [JKT.461B]: 0.032 µM, above 10 µM and 0.076 µM.
With `O=c1cc(-c2ccc(O)c(Br)c2)oc2c(Br)cc(Br)cc12` [JKT.464A], the IC50 on CK2A2 (setting [1]) turned out to be 0.003 µM; in the data set with IL-6 secretion (setting [2]), 5 µM; on CK2A1 (setting [3]) it was 0.019 µM.
`O=c1cc(-c2cc(Cl)c(O)c(Cl)c2)oc2c(Br)cc(Br)cc12` [JKT.465A]: the IC50 is 0.045 µM on CK2A2 (setting [1]), 4.9 µM with IL-6 secretion (setting [2]) and 0.134 µM on CK2A1 (setting [3]).
In the same order, the values of `Cc1cc(-c2cc(=O)c3cc(Br)cc(Br)c3o2)ccc1O` [JKT.475A] are 2.06 µM, above 10 µM and above 5 µM.
As for `COc1nc(-c2cc(=O)c3cc(Br)cc(Br)c3o2)ccc1O` [JKT.606A], the results for the IC50 on CK2A2 (setting [1]), in the data set on IL-6 secretion (setting [2]) and at CK2A1 (setting [3]) were 0.004 µM, 3.5 µM and 0.009 µM, respectively.
`O=C1/C(=C/c2ccc(O)cc2)Oc2c(Br)cc(Br)cc21` [JKT.629A]: the IC50 on CK2A2 (setting [4]) is above 5 µM; in the data set with IL-6 secretion (Table 10, read-out: IL6-Inhib.) it was 7.9 µM; on CK2A1 (setting [5]), above 5 µM. In “Aqueous solubility”, the solubility stood at 5.6 µM (≈ 2.22 µg/mL).
With `COc1cc(/C=C2\Oc3c(Br)cc(Br)cc3C2=O)ccc1O` [JKT.630A], the IC50 worked out at 0.274 µM on CK2A2 (setting [4]); 9.8 µM in the data set on IL-6 secretion (Table 10, read-out: IL6-Inhib.); 0.211 µM on CK2A1 (setting [5]). For the same compound, in “Aqueous solubility”, the solubility was found to be 3 µM (≈ 1.28 µg/mL).
In the same order, the values of `O=C1/C(=C/c2cccc(O)c2)Oc2c(Br)cc(Br)cc21` [JKT.631A] are above 5 µM, above 10 µM, above 5 µM and 22.6 µM (≈ 8.95 µg/mL).
In the same order, the values of `N#Cc1ccc(/C=C2\Oc3c(Br)cc(Br)cc3C2=O)cc1` [JKT.632A] are above 5 µM, 10 µM, above 5 µM and above 200 µM.
Regarding `O=C1/C(=C/c2ccc(-c3nnn[nH]3)cc2)Oc2c(Br)cc(Br)cc21` [JKT.633A], the IC50 is above 5 µM on CK2A2 (setting [4]); above 10 µM in the data set with IL-6 secretion (Table 10, read-out: IL6-Inhib.); above 5 µM on CK2A1 (setting [5]). For the same compound, the solubility in the data set “Aqueous solubility” was found to be 102 µM (≈ 45.8 µg/mL).
As for `O=C1/C(=C/c2ccc(O)c(Br)c2)Oc2c(Br)cc(Br)cc21` [JKT.634A], the IC50 on CK2A2 (setting [4]) was found to be 0.046 µM; in the data set with IL-6 secretion (Table 10, read-out: IL6-Inhib.), 2 µM; at CK2A1 (setting [5]), 0.022 µM. At CK2A2 (in words), the “Inhibition of CK2A2” value is listed as “potent inhibition of both”. Moreover, at CK2A1 (in words), the “Inhibition of CK2A1” value is on record as “potent inhibition of both”. Besides, the solubility in the data set “Aqueous solubility” came out at 25.5 µM (≈ 12.1 µg/mL).
Consider `O=C1/C(=C/c2ccc(O)c(C(F)(F)F)c2)Oc2c(Br)cc(Br)cc21` [JKT.635A], for which the IC50 amounted to 0.213 µM at CK2A2 (setting [4]); 1.8 µM with IL-6 secretion (Table 10, read-out: IL6-Inhib.); 0.531 µM at CK2A1 (setting [5]). In addition, in the data set “Aqueous solubility”, the solubility was 22 µM (≈ 10.2 µg/mL).
Regarding `O=C(O)c1ccc(/C=C2\Oc3c(Br)cc(Br)cc3C2=O)cc1` [JKT.636A], the “Window of selectivity for CK2A2 over CK2A1” value on CK2A2 is “nine-fold”. In addition, the IC50 at CK2A2 (setting [4]) is 0.062 µM; in the data set on IL-6 secretion (Table 10, read-out: IL6-Inhib.), above 10 µM; on CK2A1 (setting [5]) it was 0.537 µM. The solubility in the data set “Aqueous solubility” is above 200 µM.
In the case of `O=C1/C(=C/c2ccco2)Oc2c(Br)cc(Br)cc21` [JKT.637A], the IC50 at CK2A2 (setting [4]) is above 5 µM; in the data set on IL-6 secretion (Table 10, read-out: IL6-Inhib.), above 10 µM; on CK2A1 (setting [5]), above 5 µM. The solubility in “Aqueous solubility” was 52.4 µM (≈ 19.4 µg/mL).
Turning to `O=C1/C(=C/c2ccoc2)Oc2c(Br)cc(Br)cc21` [JKT.638A], the IC50 on CK2A2 (setting [4]) is above 5 µM; in the data set on IL-6 secretion (Table 10, read-out: IL6-Inhib.) it was above 10 µM; on CK2A1 (setting [5]), above 5 µM. In addition, the solubility in the data set “Aqueous solubility” came out at 30.2 µM (≈ 11.2 µg/mL).
Turning to `COc1nc(-c2cc(=O)c3cccc(Br)c3o2)ccc1O` [JKT.666A], the IC50 on CK2A2 (setting [1]) is 0.008 µM; in the data set with IL-6 secretion (setting [2]), 2 µM; on CK2A1 (setting [3]), 0.005 µM.

These data come from patent publication US20260199350A1, “FLAVONES, QUINOLINONES, QUINAZOLINONES, AND AURONES, AND USES IN CK2-MEDIATED DISEASES” (Salk Institute for Biological Studies, priority 2022, published 2026).
